Source: patent US12240840B2, “Amide-substituted heterocyclic compounds for the treatment of conditions related to the modulation of IL-12, IL-23 and/or IFN-alpha” (BRISTOL-MYERS SQUIBB COMPANY, priority 2018, dated 2025)

What follows are compounds tested on IFNα-induced pSTAT5 (pY694) in CD3 positive cells of human whole blood (assay: IFNα-Induced STAT Phosphorylation in Human Whole Blood). Details: Homo sapiens, 1 h compound incubation, 1000 U/mL recombinant human IFNα A/D for 15 min, pSTAT5 in CD3 positive population, read-out: Human WB IFNα-Induced Stat Phosph. (IC50).
Format: cell-based
Procedure: IFNα-Induced STAT Phosphorylation in Human Whole Blood
After an hour long incubation with compound, human whole blood (drawn with either EDTA or ACD-A as anti-coagulant) was stimulated with 1000 U/mL recombinant human IFNα A/D (R&D Systems 11200-2) for 15 min. The stimulation was stopped by adding Fix/Lyse buffer (BD 558049). Cells were stained with a CD3 FITC antibody (BD 555916), washed, and permeabilized on ice using Perm III buffer (BD 558050). Cells were then stained with an Alexa-Fluor 647 pSTAT5 (pY694) antibody (BD 612599) for 30 min prior to analysis on the FACS Canto II. The amount of pSTAT5 expression was quantitated by median fluorescence intensity after gating on the CD3 positive population.
IFNα-Induced STAT Phosphorylation in Human Whole Blood Inhibition Data ND—no data available

| IC50 [µM] | Compound |
| --- | --- |
| 0.24 | [2H]C([2H])([2H])NC(=O)c1nnc(Nc2ccc(OC)nn2)cc1Nc1cccc(-c2ncc(CNS(C)(=O)=O)s2)c1OC [Example 390] |
| 0.04 | [2H]C([2H])([2H])NC(=O)c1nnc(NC(=O)C2CC2)cc1Nc1cccc(-c2cc(C(=O)N3CCN(C(C)=O)CC3)n(C)n2)c1OC [Example 493] |
| 0.46 | [2H]C([2H])([2H])NC(=O)c1nnc(NC(=O)C2CC2)cc1Nc1cccc(-c2cc(C(=O)NC(COC)COC)n(C)n2)c1OC [Example 540] |
| 0.03 | [2H]C([2H])([2H])NC(=O)c1nnc(NC(=O)C2CC2)cc1Nc1cccc(-c2cnn(CC(=O)NCCOC)n2)c1OC [Example 426, 6-(cyclopropanecarboxamido)-4-((2-methoxy-3-(2-(2-((2-methoxyethyl)amino)-2-oxoethyl)-2H-1,2,3-triazol-4-yl)phenyl)amino)-N-trideuteromethylpyridazine-3-carboxamide] |
| 0.13 | [2H]C([2H])([2H])NC(=O)c1nnc(NC(=O)C2CC2)cc1Nc1cccc(-c2ccn(CCN)n2)c1OC [Example 465] |
| 0.08 | COc1c(Nc2cc(NC(=O)C3CC3)nnc2C(N)=O)cccc1-c1ncc(CN2CCN(S(C)(=O)=O)CC2)s1 [Example 395] |
| 0.27 | [2H]C([2H])([2H])NC(=O)c1nnc(NC(=O)C2CC2)cc1Nc1cccc(-c2nc(C)c(C(=O)N3C[C@@H](C)O[C@@H](C)C3)s2)c1OC [Example 362] |
| 0.78 | [2H]C([2H])([2H])NC(=O)c1nnc(NC(=O)C2CC2)cc1Nc1cccc(-c2nc(CNC(=O)CN)no2)c1OC [Example 155] |
| 0.18 | [2H]C([2H])([2H])NC(=O)c1nnc(NC(=O)C2CC2)cc1Nc1cccc(-c2nc(CN3CCN(C(=O)OC)CC3)no2)c1OC [Example 138] |
| 0.13 | [2H]C([2H])([2H])NC(=O)c1nnc(NC(=O)C2CC2)cc1Nc1cccc(-c2noc([C@H](C)O)n2)c1OC [Example 84] |
| 0.41 | [2H]C([2H])([2H])NC(=O)c1nnc(NC(=O)C2CC2)cc1Nc1cccc(-c2nc(CN3CCN(C(=O)CC#N)CC3=O)no2)c1OC [Example 139] |
| 0.53 | [2H]C([2H])([2H])NC(=O)c1cnc(NC(=O)C2CC2)cc1Nc1cccc(-c2cc(C(=O)N3CCS(=O)(=O)CC3)n(C)n2)c1OC [Example 488] |
| > 10 | [2H]C([2H])([2H])NC(=O)c1nnc(NC(=O)C2CC2)cc1Nc1cccc(-c2nc(C3(NC(=O)OC(C)(C)C)CC3)no2)c1OC [Example 150] |
| 0.3 | [2H]C([2H])([2H])NC(=O)c1cnc(NC(=O)CC2CC2)cc1Nc1cccc(-c2noc(COC)n2)c1OC [Example 86] |
| 1.37 | [2H]C([2H])([2H])NC(=O)c1nnc(NC(=O)C2CC2)cc1Nc1cccc(-c2nc(CN3CCCC3)no2)c1OC [Example 209] |
| 0.21 | [2H]C([2H])([2H])NC(=O)c1nnc(NC(=O)C2CC2)cc1Nc1cccc(-c2noc(C3(C(=O)N4CCOCC4)CC3)n2)c1OC [Example 28] |
| 6.51 | [2H]C([2H])([2H])NC(=O)c1nnc(NC(=O)C2CC2)cc1Nc1cccc(-c2nc(CN3CC4CNCC4C3)no2)c1OC (centres unmarked) [Example 232] |
| 0.18 | [2H]C([2H])([2H])NC(=O)c1nnc(Nc2cnn(C)n2)cc1Nc1cccc(-c2ncc(C(C)O)s2)c1OC (centres unmarked) [Example 385] |
| 1.13 | [2H]C([2H])([2H])NC(=O)c1nnc(NC(=O)C2CC2)cc1Nc1cc(F)cc(-c2cc(NS(C)(=O)=O)n(C)n2)c1OC [Example 501] |
| 0.05 | COc1c(Nc2cc(NC(=O)C3CC3)nnc2C(N)=O)cccc1-c1noc(CNS(=O)(=O)C2CC2)n1 [Example 49] |
| 0.21 | [2H]C([2H])([2H])NC(=O)c1nnc(NC(=O)C2CC2)cc1Nc1cccc(-c2nc(CNS(C)(=O)=O)no2)c1OC [Example 146] |
| 0.07 | [2H]C([2H])([2H])NC(=O)c1nnc(NC(=O)C2CC2)cc1Nc1cccc(-c2cc(C(=O)N3CCN(C)CC3)n(C)n2)c1OC [Example 480] |
| 0.47 | [2H]C([2H])([2H])NC(=O)c1nnc(NC(=O)C2CC2)cc1Nc1cccc(-c2cc(C(=O)NC3CCC(N(C)C)CC3)n(C)n2)c1OC (centres unmarked) [Example 534] |
| > 10 | [2H]C([2H])([2H])NC(=O)c1nnc(NC(=O)C2CC2)cc1Nc1cccc(-c2ncc(C(=O)NC(C)(C)C)s2)c1OC [Example 309] |
| 7.36 | [2H]C([2H])([2H])NC(=O)c1nnc(NC(=O)C2CC2)cc1Nc1cccc(-c2nc([C@@H](C)NC(=O)OC(C)(C)C)no2)c1OC [Example 193] |
| 0.82 | [2H]C([2H])([2H])NC(=O)c1nnc(Nc2ccc(OC)nn2)cc1Nc1cccc(-c2ncc(CNC(=O)OC)s2)c1OC [Example 391] |

| IC50 [µM] | Compound |
| --- | --- |
| 0.15 | [2H]C([2H])([2H])NC(=O)c1nnc(NC(=O)C2CC2)cc1Nc1cccc(-c2ncc(C(=O)N3C[C@@H](C)O[C@@H](C)C3)s2)c1OC [Example 275] |
| 0.15 | [2H]C([2H])([2H])NC(=O)c1nnc(NC(=O)C2CC2)cc1Nc1cc(F)cc(-c2cc(C(=O)N3CCN(C(C)C)CC3)n(C)n2)c1OC [Example 518] |
| 1.8 | [2H]C([2H])([2H])NC(=O)c1nnc(NC(=O)C2CC2)cc1Nc1cccc(-c2nc([C@H](CO)NC(=O)COC)no2)c1OC [Example 202] |
| 0.03 | [2H]C([2H])([2H])NC(=O)c1nnc(NC(=O)C2CC2)cc1Nc1cccc(-c2ncc(C(=O)NCCN3CCCC3)s2)c1OC [Example 301] |
| 0.025 | CCS(=O)(=O)NCc1nc(-c2cccc(Nc3cc(NC(=O)C4CC4)nnc3C(N)=O)c2OC)no1 [Example 48] |
| 0.1 | [2H]C([2H])([2H])NC(=O)c1nnc(NC(=O)C2CC2)cc1Nc1cc(F)cc(-c2cc(C(=O)N3CCN(CCO)CC3)n(C)n2)c1OC [Example 484] |
| 0.08 | COc1c(Nc2cc(NC(=O)C3CC3)nnc2C(N)=O)cccc1-c1noc([C@H]2C[C@@H](O)CN2S(C)(=O)=O)n1 [Example 62] |
| 0.59 | [2H]C([2H])([2H])NC(=O)c1nnc(NC(=O)C2CC2)cc1Nc1cccc(-c2cn(CCN3CCOCC3)nn2)c1OC [Example 422, 6-(cyclopropanecarboxamido)-4-((2-methoxy-3-(1-(2-morpholinoethyl)-1H-1,2,3-triazol-4-yl)phenyl)amino)-N-(methyl-d3)pyridazine-3-carboxamide] |
| 0.03 | COc1c(Nc2cc(NC(=O)C3CC3)nnc2C(N)=O)cccc1-c1noc(CC(=O)N2CCOCC2)n1 [Example 36] |
| 0.29 | [2H]C([2H])([2H])NC(=O)c1cnc(NC(=O)C2CC2)cc1Nc1cccc(-c2cnn(CCNC(=O)COC)n2)c1OC [Example 441] |
| 2.89 | [2H]C([2H])([2H])NC(=O)c1nnc(NC(=O)C2CC2)cc1Nc1cccc(-c2cnn(CCNC(=O)CC3CCCO3)n2)c1OC (centres unmarked) [Example 438] |
| 4.45 | [2H]C([2H])([2H])NC(=O)c1nnc(NC(=O)C2CC2)cc1Nc1cccc(-c2cc(C)n(CCN)n2)c1OC [Example 462] |
| 1.68 | [2H]C([2H])([2H])NC(=O)c1nnc(NC(=O)C2CC2)cc1Nc1cccc(-c2cc(C(=O)NC(CO)CO)n(C)n2)c1OC [Example 523] |
| 0.21 | [2H]C([2H])([2H])NC(=O)c1nnc(NC(=O)C2CC2)cc1Nc1cccc(-c2nc(C)c(C(=O)N3CCC3)s2)c1OC [Example 358] |
| 1.11 | [2H]C([2H])([2H])NC(=O)c1nnc(NC(=O)C2CC2)cc1Nc1cccc(-c2ccn(CCNC(=O)OC(C)(C)C)n2)c1OC [Example 464] |
| 2.36 | [2H]C([2H])([2H])NC(=O)c1nnc(NC(=O)C2CC2)cc1Nc1cccc(-c2nc([C@@H](NC(=O)CC)[C@@H](C)O)no2)c1OC [Example 190] |
| 0.1 | [2H]C([2H])([2H])NC(=O)c1nnc(NC(=O)C2CC2)cc1Nc1cccc(-c2ncc(C(=O)NC(C)C)s2)c1OC [Example 303] |
| 0.29 | [2H]C([2H])([2H])NC(=O)c1nnc(NC(=O)C2CC2)cc1Nc1cc(F)cc(-c2cc(C(=O)N3CCC(N(C)C)CC3)n(C)n2)c1OC [Example 515] |
| 0.22 | [2H]C([2H])([2H])NC(=O)c1cnc(NC(=O)C2CC2)cc1Nc1cccc(-c2nc(CN3C[C@@H](C)O[C@@H](C)C3)no2)c1OC [Example 210] |
| 0.04 | COc1c(Nc2cc(NC(=O)C3CC3)nnc2C(N)=O)cccc1-c1noc(CN(C)S(=O)(=O)CC(F)(F)F)n1 [Example 55] |
| 0.32 | [2H]C([2H])([2H])NC(=O)c1nnc(NC(=O)C2CC2)cc1Nc1cc(F)cc(-c2cc(C(=O)N3CCC(c4ccccc4)CC3)n(C)n2)c1OC [Example 511] |
| 0.72 | [2H]C([2H])([2H])NC(=O)c1nnc(NC(=O)C2CC2)cc1Nc1cccc(-c2cnn(CCN)c2)c1OC [Example 557] |
| 3.6 | [2H]C([2H])([2H])NC(=O)c1nnc(Nc2cc(C)n(C)n2)cc1Nc1cc(F)cc(-c2cc(C(=O)NS(C)(=O)=O)n(C)n2)c1OC [Example 552] |
| 0.19 | COc1c(Nc2cc(NC(=O)C3CC3)nnc2C(N)=O)cccc1-c1ncc(C(=O)N2CCCCC2)s1 [Example 403] |
| 0.24 | [2H]C([2H])([2H])NC(=O)c1nnc(Nc2cc(C(C)(C)O)ccn2)cc1Nc1cc(F)cc(-c2cc(C(=O)N(C)C)n(C)n2)c1OC [Example 550] |
| 0.13 | COc1c(Nc2cc(NC(=O)C3CC3)nnc2C(N)=O)cccc1-c1ncc(C(=O)N2CCC(CO)CC2)o1 [Example 418] |

| Compound | IC50 [µM] |
| --- | --- |
| [2H]C([2H])([2H])NC(=O)c1nnc(NC(=O)C2CC2)cc1Nc1cccc(-c2ncc(C(=O)N3[C@@H]4CC[C@H]3CC(N(C)C)C4)s2)c1OC (some centres unmarked) [Example 344] | 0.03 |
